From ChEMBL document CHEMBL3885881, “DrugMatrix”

Species on record: Rattus norvegicus
Test: DrugMatrix - Regimen: Daily Repeat
Type: toxicity, organism-based, Sprague-Dawley
Design: regimen Daily Repeat, gender Male, age 6-8 weeks
Conditions: in vivo, iv, vehicle 100 % SALINE; for ABSOLUTE BASOPHIL / ABSOLUTE EOSINOPHIL / ABSOLUTE LYMPHOCYTE / ABSOLUTE MONOCYTE / ABSOLUTE SEGMENTED NEUTROPHIL / BASOPHIL / EOSINOPHIL / ERYTHROCYTE COUNT / HEMATOCRIT / HEMOGLOBIN / LEUKOCYTE COUNT / LYMPHOCYTE / MEAN CORPUSCULAR HEMOGLOBIN / MEAN CORPUSCULAR HEMOGLOBIN CONCENTRATION / MEAN CORPUSCULAR VOLUME / MONOCYTE / NEUTROPHIL / NUCLEATED RED BLOOD CELLS / PLATELET COUNT: tissue Blood; for ALANINE AMINOTRANSFERASE / ALBUMIN / ALKALINE PHOSPHATASE / ASPARTATE AMINOTRANSFERASE / BLOOD UREA NITROGEN / CARBON DIOXIDE / CHLORIDE / CHOLESTEROL / CREATINE PHOSPHOKINASE / CREATININE / GLUCOSE / LACTATE DEHYDROGENASE / LIPASE / PHOSPHORUS / POTASSIUM / SODIUM / TOTAL BILIRUBIN / TOTAL PROTEIN / URIC ACID: tissue Plasma
[1] = 2 mg/kg, 72 h, dose level Low, time 3 day
[2] = 2 mg/kg, 120 h, dose level Low, time 5 day
[3] = 20 mg/kg, 72 h, dose level High, time 3 day
[4] = 20 mg/kg, 120 h, dose level High, time 5 day

CCN1CC(CCN2CCOCC2)C(c2ccccc2)(c2ccccc2)C1=O (configuration not stated) [DOXAPRAM]
ABSOLUTE BASOPHIL [1]: 0 CELLS/uL
ABSOLUTE EOSINOPHIL [1]: 0 CELLS/uL
ABSOLUTE LYMPHOCYTE [1]: 13662.33 CELLS/uL
ABSOLUTE MONOCYTE [1]: 351.67 CELLS/uL
ABSOLUTE SEGMENTED NEUTROPHIL [1]: 2319.33 CELLS/uL
BASOPHIL [1]: 0%
EOSINOPHIL [1]: 0%
ERYTHROCYTE COUNT [1]: 5.67 x10E6/uL
HEMATOCRIT [1]: 35.7%
HEMOGLOBIN [1]: 14.2 G/DL
LEUKOCYTE COUNT [1]: 16.33 x10E3/uL
LYMPHOCYTE [1]: 84%
MEAN CORPUSCULAR HEMOGLOBIN [1]: 25.1 pg
MEAN CORPUSCULAR HEMOGLOBIN CONCENTRATION [1]: 39.77 G/DL
MEAN CORPUSCULAR VOLUME [1]: 63.03 fL
MONOCYTE [1]: 2%
NEUTROPHIL [1]: 14%
NUCLEATED RED BLOOD CELLS [1]: 0 /100WBC
PLATELET COUNT [1]: 1174 x10E3/uL
ALANINE AMINOTRANSFERASE [1]: 72.33 u/L
ALBUMIN [1]: 3.93 G/DL
ALKALINE PHOSPHATASE [1]: 296.67 u/L
ASPARTATE AMINOTRANSFERASE [1]: 101 u/L
BLOOD UREA NITROGEN [1]: 17 mg/dL
CARBON DIOXIDE [1]: 26.33 mmol/L
CHLORIDE [1]: 101.33 MEQ/L
CHOLESTEROL [1]: 83.33 mg/dL
CREATINE PHOSPHOKINASE [1]: 298.67 u/L
CREATININE [1]: 0.15 mg/dL
GLUCOSE [1]: 149 mg/dL
LACTATE DEHYDROGENASE [1]: 372.67 u/L
LIPASE [1]: 8 u/L
PHOSPHORUS [1]: 12.83 mg/dL
POTASSIUM [1]: 7.17 MEQ/L
SODIUM [1]: 146.3 MEQ/L
TOTAL BILIRUBIN [1]: 0.17 mg/dL
TOTAL PROTEIN [1]: 6.1 G/DL
URIC ACID [1]: 1.53 mg/dL
ABSOLUTE BASOPHIL [2]: 0 CELLS/uL
ABSOLUTE EOSINOPHIL [2]: 0 CELLS/uL
ABSOLUTE LYMPHOCYTE [2]: 13405 CELLS/uL
ABSOLUTE MONOCYTE [2]: 468.67 CELLS/uL
ABSOLUTE SEGMENTED NEUTROPHIL [2]: 2059.67 CELLS/uL
BASOPHIL [2]: 0%
EOSINOPHIL [2]: 0%
ERYTHROCYTE COUNT [2]: 6.04 x10E6/uL
HEMATOCRIT [2]: 37.2%
HEMOGLOBIN [2]: 14.8 G/DL
LEUKOCYTE COUNT [2]: 15.93 x10E3/uL
LYMPHOCYTE [2]: 84%
MEAN CORPUSCULAR HEMOGLOBIN [2]: 24.5 pg
MEAN CORPUSCULAR HEMOGLOBIN CONCENTRATION [2]: 39.8 G/DL
MEAN CORPUSCULAR VOLUME [2]: 61.53 fL
MONOCYTE [2]: 3%
NEUTROPHIL [2]: 13%
NUCLEATED RED BLOOD CELLS [2]: 0.67 /100WBC
PLATELET COUNT [2]: 1035 x10E3/uL
ALANINE AMINOTRANSFERASE [2]: 97.67 u/L
ALBUMIN [2]: 3.97 G/DL
ALKALINE PHOSPHATASE [2]: 400.33 u/L
ASPARTATE AMINOTRANSFERASE [2]: 101.33 u/L
BLOOD UREA NITROGEN [2]: 15.33 mg/dL
CARBON DIOXIDE [2]: 26.33 mmol/L
CHLORIDE [2]: 101.33 MEQ/L
CHOLESTEROL [2]: 65.33 mg/dL
CREATINE PHOSPHOKINASE [2]: 230 u/L
CREATININE [2]: 0.14 mg/dL
GLUCOSE [2]: 159.33 mg/dL
LACTATE DEHYDROGENASE [2]: 100.67 u/L
LIPASE [2]: 8.33 u/L
PHOSPHORUS [2]: 12.7 mg/dL
POTASSIUM [2]: 6.47 MEQ/L
SODIUM [2]: 144.37 MEQ/L
TOTAL BILIRUBIN [2]: 0.13 mg/dL
TOTAL PROTEIN [2]: 6.17 G/DL
URIC ACID [2]: 1.6 mg/dL
ABSOLUTE BASOPHIL [3]: 0 CELLS/uL
ABSOLUTE EOSINOPHIL [3]: 173.33 CELLS/uL
ABSOLUTE LYMPHOCYTE [3]: 15104 CELLS/uL
ABSOLUTE MONOCYTE [3]: 284 CELLS/uL
ABSOLUTE SEGMENTED NEUTROPHIL [3]: 1672 CELLS/uL
BASOPHIL [3]: 0%
EOSINOPHIL [3]: 1%
ERYTHROCYTE COUNT [3]: 5.38 x10E6/uL
HEMATOCRIT [3]: 34.17%
HEMOGLOBIN [3]: 13.5 G/DL
LEUKOCYTE COUNT [3]: 17.23 x10E3/uL
LYMPHOCYTE [3]: 87.67%
MEAN CORPUSCULAR HEMOGLOBIN [3]: 25.13 pg
MEAN CORPUSCULAR HEMOGLOBIN CONCENTRATION [3]: 39.53 G/DL
MEAN CORPUSCULAR VOLUME [3]: 63.6 fL
MONOCYTE [3]: 1.67%
NEUTROPHIL [3]: 9.67%
NUCLEATED RED BLOOD CELLS [3]: 0 /100WBC
PLATELET COUNT [3]: 1285.33 x10E3/uL
ALANINE AMINOTRANSFERASE [3]: 51.67 u/L
ALBUMIN [3]: 4.33 G/DL
ALKALINE PHOSPHATASE [3]: 402.67 u/L
ASPARTATE AMINOTRANSFERASE [3]: 102.67 u/L
BLOOD UREA NITROGEN [3]: 15 mg/dL
CARBON DIOXIDE [3]: 21.67 mmol/L
CHLORIDE [3]: 102 MEQ/L
CHOLESTEROL [3]: 79 mg/dL
CREATINE PHOSPHOKINASE [3]: 445.33 u/L
CREATININE [3]: 0.15 mg/dL
GLUCOSE [3]: 149.33 mg/dL
LACTATE DEHYDROGENASE [3]: 669.33 u/L
LIPASE [3]: 9 u/L
PHOSPHORUS [3]: 13.03 mg/dL
POTASSIUM [3]: 6.9 MEQ/L
SODIUM [3]: 143.67 MEQ/L
TOTAL BILIRUBIN [3]: 0.17 mg/dL
TOTAL PROTEIN [3]: 5.93 G/DL
URIC ACID [3]: 1.7 mg/dL
ABSOLUTE BASOPHIL [4]: 0 CELLS/uL
ABSOLUTE EOSINOPHIL [4]: 118.67 CELLS/uL
ABSOLUTE LYMPHOCYTE [4]: 15901.33 CELLS/uL
ABSOLUTE MONOCYTE [4]: 415.33 CELLS/uL
ABSOLUTE SEGMENTED NEUTROPHIL [4]: 1364.67 CELLS/uL
BASOPHIL [4]: 0%
EOSINOPHIL [4]: 0.67%
ERYTHROCYTE COUNT [4]: 5.51 x10E6/uL
HEMATOCRIT [4]: 34.63%
HEMOGLOBIN [4]: 13.57 G/DL
LEUKOCYTE COUNT [4]: 17.8 x10E3/uL
LYMPHOCYTE [4]: 89.33%
MEAN CORPUSCULAR HEMOGLOBIN [4]: 24.63 pg
MEAN CORPUSCULAR HEMOGLOBIN CONCENTRATION [4]: 39.17 G/DL
MEAN CORPUSCULAR VOLUME [4]: 62.8 fL
MONOCYTE [4]: 2.33%
NEUTROPHIL [4]: 7.67%
NUCLEATED RED BLOOD CELLS [4]: 0 /100WBC
PLATELET COUNT [4]: 1309.33 x10E3/uL
ALANINE AMINOTRANSFERASE [4]: 57 u/L
ALBUMIN [4]: 4.33 G/DL
ALKALINE PHOSPHATASE [4]: 365.67 u/L
ASPARTATE AMINOTRANSFERASE [4]: 95.67 u/L
BLOOD UREA NITROGEN [4]: 16 mg/dL
CARBON DIOXIDE [4]: 23.33 mmol/L
CHLORIDE [4]: 102.67 MEQ/L
CHOLESTEROL [4]: 66.33 mg/dL
CREATINE PHOSPHOKINASE [4]: 259 u/L
CREATININE [4]: 0.18 mg/dL
GLUCOSE [4]: 166 mg/dL
LACTATE DEHYDROGENASE [4]: 229 u/L
LIPASE [4]: 8.33 u/L
PHOSPHORUS [4]: 13.17 mg/dL
POTASSIUM [4]: 6.59 MEQ/L
SODIUM [4]: 144.97 MEQ/L
TOTAL BILIRUBIN [4]: 0.23 mg/dL
TOTAL PROTEIN [4]: 5.93 G/DL
URIC ACID [4]: 2.2 mg/dL
